From patent publication US8440789B2, “Pharmaceutical and/or cosmetic composition containing an active antioxydant principle and cell energy activator” (Societe d'Extraction des Principes Actifs (Vincience), priority 2007, dated 2013)
Ends that are not written are not given here.

Experiments:
Type in all cases: cell-based
dermal fibroblasts [1] = experiment: Synthesis of intracellular ATP (ATP Bioluminescence Assay Kit HS II); conditions: 1% solution of a 50 ppm solution of peptide, compared to the untreated cells
Experimental: The goal of this study is to determine the influence of the peptide SEQ ID no 2 on the synthesis of ATP.
This study was conducted using an “ATP Bioluminescence Assay Kit HS II” Kit (Roche Applied Science):
The dermal fibroblasts are treated with a 1% solution, a solution a 50 ppm, containing the peptide SEQ ID no 2, representative of the family of peptides according to the invention, for a period lasting from 1 to 3 hours. At the end of the incubation period, the wells are emptied of their medium and rinsed with 2 ml of cold PBS before adding 250 μl of a lysis buffer supplied by the kit. The cells of each well are then scrapped, then collected in 14 ml tubes. Each well is rinsed with 2×500 μl of cold PBS and everything is against collected the respective tubes. Beginning with these samples, a 1/12000th dilution is done in cold PBS before each reading. The dosage of ATP is done on these samples: 50 μL of this dilution is placed in a luma basin and 50 μl of luminol are added. After 10 seconds, the luminescence read is triggered. The values are standardized with respect to the quantity of proteins for each sample. The measures are done using an apparatus: the Biocounter M2010A LUMAC®/3M.

Biopsies of human skin = experiment: Protection against stress induced by glycation, ex vivo skin culture, H&E histology; conditions: methyl glyoxal at 5 or 10 mM; peptide 1% of a 50 ppm mother solution, 24 hours before and 24 hours after glycation agent
Experimental: The goal of this study is to determine the protective effective of the peptide SEQ ID no 1, with respect to ex vivo epidermal culture subjected to stress by a glycation agent.
Biopsies of human skin are maintained in ex vivo culture, treated with a 1% solution, a mother solution of 50 ppm of peptide SEQ ID no 1, 24 hours before, and also 24 hours after the introduction of a glycation agent (methyl glyoxal at 5 or 10 mM). Histology hematoxyline-eosine (H&E) staining makes it possible to evaluate the quality of skin structures.

dermal fibroblasts [2] = experiment: Protection against oxidative damage: carbonylation of proteins (EIA/ELISA with DNP); conditions: for decrease in carbonylation: peptide 1% solution at 50 ppm, 72 hours before, during, 24 hours after stress
Description: The goal of this study is to determine the protector effect of the peptide SEQ ID no 1 with respect to dermal fibroblasts subjected to oxidative stress caused by UV rays or hydrogen peroxide (H2O2). To evaluate the oxidative damage suffered by the cells, measurements of the carbonylation of the proteins was done.
The carbonylation of proteins is the result of the oxidative splitting of proteins or oxidation of the arginine residues, lysine, proline or threonine. The dosage of the carbonylation of proteins is done using an EIA (Enzyme Immuno Assay) technique.
Fibroblasts in culture were placed in the presence of the peptide SEQ ID no 1 in a 1% solution, at 50 ppm, 72 hours before, during, and also 24 hours after the oxidative stress (UVB irradiation of 50 mJ/cm^2 or treatment par 2 mM of H2O2). untreated controls not subjected to oxidative stress are done.
The degree of carbonylation consists in the use of DNP (dinitrophenyl) which has the property to se fixer specifically on these carbonyl groups of the proteins. The fixed DNP is then assayed using an ELISA method, thanks to an anti-DNP antibody linked to peroxydase. A range of BSA (bovine albumin serum) oxidized (with a known concentration of carbonyl groups) is used for calibration.

Row | Substance | increase in the quantity of intracellular ATP (dermal fibroblasts [1]; after 1 hour of culture) | increase in the quantity of intracellular ATP (dermal fibroblasts [1]; after 3 hours of culture) | evaluation of the skin structures (H&E staining) (Biopsies of human skin) | decrease in carbonylation (dermal fibroblasts [2]; UVB irradiation of 50 mJ/cm^2, compared to irradiated cells not treated) | reduction in the carbonylation of proteins (dermal fibroblasts [2]; cells treated with peptide (1% solution, at 50 ppm), compared to the untreated cells) | decrease in carbonylation (dermal fibroblasts [2]; oxidative stress by 2 mM of H2O2, compared to stressed cells not treated)
1 | AVLAGD [peptide SEQ ID No 2] | 17% | 67% | – | – | – | –
2 | Ala-Val-Leu-Ala-Gly-Asp-NH2 (AVLAGD-NH2) [peptide SEQ ID no 1] | – | – | net resistance to cellular stress induced by glycation | 20% | 30% | 20%
